Laboratory results from patent US7605175B2, “Inhibitors of cyclin-dependent kinases, compositions and uses related thereto” (GPC Biotech AG, priority 2001, dated 2009).

How the values were obtained:
Conditions in all cases: Table 6
[1] = molecular target: T1, Cdc2/cyclin B (Homo sapiens, UniProt P06493); experiment: Biochemical kinase assay Cdc2/cyclin B
T1 construct: purchased
Excerpt: (§1) Enzymes: Cdc2/cyclin B was obtained from commercial sources. Cdk2/his-cyclin Eshort was expressed in Sf9 cells. Cdk2/cyclin A, cdk4/cyclin D1, and cdk6/cyclin D2 were expressed in Sf9 cells. Protein kinase A (catalytic subunit, from bovine heart) and protein kinase C (mixed isozymes from rat brain) were obtained from commercial sources.
(§2) Substrates: Histone H1 was from commercial sources. GST-Rb is glutathione-S-trans-ferase fused to the N-terminal of residues 379-928 of the Rb protein.
Assays: Cdc2/cyclinB activity was determined by measuring incorporation of radio-activity from adenosine [γ-^32P]triphosphate into Histone H1 using a TCA precipitation assay. Cdc2/cyclin B kinase and Histone H1 were obtained from commercial sources. The final assay solution contained 50 mM Tris.HCl, 10 mM MgCl2, 1 mM dithiothreitol, 50 μM adenosine triphosphate, 2 μCi ^32P, 10% dimethylsulfoxide (from compounds), pH 7.5, 20 μg Histone H1, 6 U enzyme in a 50 μL volume. Compounds were added at various concentrations between 1 nM and 10 μM. The reaction was started with the addition of enzyme, allowed to proceed for 20 min at 30° C., and stopped by the addition of 20 μL of stop solution (237 mM disodium ethylenediamine tetraacetate, 105 mM adenosine triphosphate, pH 8.0). The protein was precipitated by the addition of 35 μL 70% (w/v) trichloroacetic acid, and the precipitate was captured on a 96-well glass fiber filter plate (Millipore, Inc.), which had been wet with 25% (w/v) trichloroacetic acid. The filter was washed ten times with 25% (w/v) trichloroacetic acid, and the amount of incorporated ^32P was determined by scintillation counting after adding 100 μL scintillant (Microscint 20, Packard Instruments). Relative activity was determined by dividing the amount of radioactivity incorporated in the presence of compound by the amount of radioactivity incorporated in a control experiment containing DMSO alone but no compound. The background radioactivity, determined in an experiment containing 50 mM EDTA in place of compound, was subtracted from all results before calculations.

[2] = molecular target: T2, Cdk2/cyclin E (Homo sapiens, UniProt P24941); experiment: Biochemical kinase assay Cdk2/cyclin E
T2 construct: made in house; host or cells: Sf9 insect cells
Excerpt: as §1, §2
(§3) Cdk2/cyclin E, Cdk2/cyclin A, Cdk4/cyclin D1, and Cdk6/cyclin D2 activity was determined using a glutathione-sepharose capture assay. The enzymes were expressed in Sf9 insect cells as heterodimers, and the substrate (GST-Rb) was glutathione-S-transferase fused to residues 379 to 928 of Rb retinoblastoma protein, expressed in E. coli. The assay solution contained 50 mM Tris.HCl, 10 mM MgCl2, 1 mM dithiothreitol, 50 μM adenosine triphosphate, 2 μCi [γ-^33P]adenosine triphosphate, 10% dimethylsulfoxide (from compounds), pH 7.5, 40 μg GST-Rb, and enzyme in a 100 μL volume. Compounds were added at various concentrations between 1 nM and 10 μM. The reaction was allowed to proceed for 15 min at 30° C. and was stopped by the addition of 70 μL of stop solution (237 mM disodium ethylene-diamine tetraacetate, 105 mM adenosine triphosphate, pH 8.0). The GST-Rb was captured by binding to glutathione-sepharose bead (Amersham) for 110 min, and the suspension was filtered through a glass fiber filter. After washing the retained beads five time with phosphate-buffered saline containing 0.3% (w/v) Tween-20, the amount of ^33P incorporated was determined by scintillation counting after adding 100 μL scintillant. Relative activity was determined by dividing the amount of radioactivity incorporated in the presence of compound by the amount of radioactivity incorporated in a control experiment containing DMSO alone but no compound. The background radioactivity, determined in an experiment containing 50 mM disodium ethylenediamine tetraacetate in place of compound, was subtracted from all results before calculations.

[3] = molecular target: T3, Cdk4/cyclin D1 (Homo sapiens, UniProt P11802); experiment: Biochemical kinase assay Cdk4/cyclin D1
T3 construct: made in house; host or cells: Sf9 insect cells
Excerpt: as §1, §2, §3

T1 sequence (P06493 whole entry, species assumed): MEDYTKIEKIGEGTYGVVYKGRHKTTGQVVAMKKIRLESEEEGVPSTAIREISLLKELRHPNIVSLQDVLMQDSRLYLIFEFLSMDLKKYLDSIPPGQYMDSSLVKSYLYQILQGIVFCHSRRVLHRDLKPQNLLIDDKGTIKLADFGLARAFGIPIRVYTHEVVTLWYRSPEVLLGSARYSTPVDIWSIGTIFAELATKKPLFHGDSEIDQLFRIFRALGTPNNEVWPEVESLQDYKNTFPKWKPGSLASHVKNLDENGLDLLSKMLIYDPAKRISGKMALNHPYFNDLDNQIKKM
T1 sequence (P14635 whole entry partner, species assumed): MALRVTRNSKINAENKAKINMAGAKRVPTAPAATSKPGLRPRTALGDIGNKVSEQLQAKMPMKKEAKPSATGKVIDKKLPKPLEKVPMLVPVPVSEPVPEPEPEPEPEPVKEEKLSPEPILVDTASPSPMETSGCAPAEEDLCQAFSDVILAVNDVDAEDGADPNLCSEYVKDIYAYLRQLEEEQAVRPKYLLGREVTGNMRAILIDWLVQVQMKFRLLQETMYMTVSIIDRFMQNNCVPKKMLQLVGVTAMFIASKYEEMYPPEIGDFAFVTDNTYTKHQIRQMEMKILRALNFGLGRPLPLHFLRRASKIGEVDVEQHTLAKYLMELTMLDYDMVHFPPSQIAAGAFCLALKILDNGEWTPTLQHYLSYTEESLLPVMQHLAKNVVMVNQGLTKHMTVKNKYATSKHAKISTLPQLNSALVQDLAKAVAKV
T3 sequence (P11802 whole entry, species assumed): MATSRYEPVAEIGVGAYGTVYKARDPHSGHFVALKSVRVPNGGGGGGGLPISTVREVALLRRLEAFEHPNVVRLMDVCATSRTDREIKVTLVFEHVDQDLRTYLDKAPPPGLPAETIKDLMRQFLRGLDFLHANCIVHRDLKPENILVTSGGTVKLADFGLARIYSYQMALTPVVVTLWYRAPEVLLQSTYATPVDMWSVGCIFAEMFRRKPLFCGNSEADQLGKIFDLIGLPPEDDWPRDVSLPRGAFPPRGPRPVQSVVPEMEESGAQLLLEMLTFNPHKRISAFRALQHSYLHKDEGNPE
T3 sequence (P24385 whole entry partner, species assumed): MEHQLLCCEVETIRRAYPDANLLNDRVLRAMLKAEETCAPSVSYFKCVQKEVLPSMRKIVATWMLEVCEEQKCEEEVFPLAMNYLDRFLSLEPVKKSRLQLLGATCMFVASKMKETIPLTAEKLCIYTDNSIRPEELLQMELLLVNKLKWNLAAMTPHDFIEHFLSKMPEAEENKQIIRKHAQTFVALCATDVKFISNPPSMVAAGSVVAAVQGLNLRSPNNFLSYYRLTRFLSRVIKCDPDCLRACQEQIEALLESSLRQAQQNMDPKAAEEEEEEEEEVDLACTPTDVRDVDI

| IC50 [1] [nM] | IC50 [2] [nM] | IC50 [3] [nM] | Structure (SMILES) |
| --- | --- | --- | --- |
| < 100 | < 100 | < 1000 | CC(C)N1CCN(CCOc2ccc(-c3n[nH]c4c3C(=O)c3c(NC(=O)NN5CCOCC5)cccc3-4)c(F)c2)CC1 [Compound A16] |
| < 100 | – | – | CCOC(=O)C1CCN(Cc2ccc(-c3n[nH]c4c3C(=O)c3c(NC(=O)NN5CCOCC5)cccc3-4)cc2)CC1 [Compound B9] |
| < 100 | < 100 | < 100 | O=C(Nc1cccc2c1C(=O)c1c-2n[nH]c1-c1ccc(OCC(=O)N2CCOCC2)cc1)NN1CCOCC1 [Compound A36] |
| < 100 | < 100 | < 100 | O=C(Nc1cccc2c1C(=O)c1c-2n[nH]c1-c1ccc(OCCN2CCOCC2)cc1)NN1CCOCC1 [Compound A3] |
| < 100 | < 100 | < 100 | Cc1cc(OCCN2CCCCC2)ccc1-c1[nH]nc2c1C(=O)c1c(NC(=O)NN3CCN(C)CC3)cccc1-2 [Compound A8] |
| < 100 | – | – | O=C(Nc1cccc2c1C(=O)c1c(-c3ccc(CNCCO)cc3)n[nH]c1-2)NN1CCOCC1 [Compound B10] |
| < 10 | < 100 | – | O=C(Nc1cccc2c1C(=O)c1c(-c3ccc(CN(CCO)CCO)cc3)n[nH]c1-2)NN1CCOCC1 [Compound B2] |
| < 100 | < 100 | < 100 | Cc1cc(OCCN2CCOCC2)ccc1-c1[nH]nc2c1C(=O)c1c(NC(=O)NN3CCN(C)CC3)cccc1-2 [Compound A7] |
| < 10 | < 10 | < 100 | Cc1cc(-c2[nH]nc3c2C(=O)c2c(NC(=O)NN4CCOCC4)cccc2-3)ccc1OCCN1CCN(C(C)C)CC1 [Compound A24] |
| < 100 | < 100 | < 100 | CN1CCN(NC(=O)Nc2cccc3c2C(=O)c2c(-c4ccc(OCCN5CCCC5)cc4F)n[nH]c2-3)CC1 [Compound A12] |
| < 100 | < 100 | < 100 | CC(C)C(N)C(=O)OCCN1CCN(NC(=O)Nc2cccc3c2C(=O)c2c-3n[nH]c2-c2ccc(OCCN3CCCC3)cc2)CC1 (stereo not shown) [Compound A33] |
| < 10 | < 100 | < 1000 | O=C(Nc1cccc2c1C(=O)c1c-2n[nH]c1-c1ccc(OCC(=O)N2CCCC2)cc1)NN1CCOCC1 [Compound A46] |
| < 10 | < 100 | – | O=C(Nc1cccc2c1C(=O)c1c(-c3ccc(CN4CCN(CCO)CC4)cc3)n[nH]c1-2)NN1CCOCC1 [Compound B3] |
| – | < 100 | – | O=C(Nc1cccc2c1C(=O)c1c(-c3ccc(CN4CCCC4)cc3)n[nH]c1-2)NN1CCOCC1 [Compound A51] |
| – | < 100 | – | O=C(Nc1cccc2c1C(=O)c1c(-c3ccc(CN4CCN(c5ccccn5)CC4)cc3)n[nH]c1-2)NN1CCOCC1 [Compound A82] |
| < 100 | – | – | O=C(Nc1cccc2c1C(=O)c1c(-c3ccc(CNCc4ccccn4)cc3)n[nH]c1-2)NN1CCOCC1 [Compound B13] |
| < 100 | < 100 | – | O=C(Nc1cccc2c1C(=O)c1c(-c3ccc(CN4CCOCC4)cc3)n[nH]c1-2)NN1CCOCC1 [Compound A47] |
| – | < 100 | – | O=C(Nc1cccc2c1C(=O)c1c(-c3ccc(CN4CCC(O)CC4)cc3)n[nH]c1-2)NN1CCOCC1 [Compound B5] |
| – | < 10 | – | O=C(Nc1cccc2c1C(=O)c1c(-c3ccc(CNC(CO)CO)cc3)n[nH]c1-2)NN1CCOCC1 [Compound B1] |
| < 100 | < 100 | < 100 | COc1cc(-c2[nH]nc3c2C(=O)c2c(NC(=O)NN4CCOCC4)cccc2-3)ccc1OCCN1CCCC1 [Compound A31] |

| IC50 [1] [nM] | IC50 [2] [nM] | IC50 [3] [nM] | Structure (SMILES) |
| --- | --- | --- | --- |
| < 10 | < 100 | < 100 | CCOC(=O)COc1ccc(-c2[nH]nc3c2C(=O)c2c(NC(=O)NN4CCOCC4)cccc2-3)cc1 [Compound A65] |
| < 10 | < 100 | < 100 | CN1CCN(NC(=O)Nc2cccc3c2C(=O)c2c-3n[nH]c2-c2ccc(O)cc2)CC1 [Compound A15] |
| < 100 | < 10 | < 100 | O=C(O)COc1ccc(-c2n[nH]c3c2C(=O)c2c(NC(=O)NN4CCOCC4)cccc2-3)cc1 [Compound A68] |
| < 100 | < 100 | < 1000 | Cc1cc(OCCN2CCN(C(C)C)CC2)ccc1-c1[nH]nc2c1C(=O)c1c(NC(=O)NN3CCN(C)CC3)cccc1-2 [Compound A19] |
| < 10 | < 100 | < 100 | Cc1noc(COc2ccc(-c3[nH]nc4c3C(=O)c3c(NC(=O)NN5CCOCC5)cccc3-4)cc2)n1 [Compound A35] |
| < 100 | < 10 | < 100 | CC(C)N1CCN(NC(=O)Nc2cccc3c2C(=O)c2c-3n[nH]c2-c2ccc(OCCN3CCCC3)cc2)CC1 [Compound A23] |
| < 100 | < 10 | < 100 | CC(C)N1CCN(CCOc2ccc(-c3n[nH]c4c3C(=O)c3c(NC(=O)NN5CCOCC5)cccc3-4)cc2F)CC1 [Compound A22] |
| < 10 | < 100 | < 100 | CN1CCN(NC(=O)Nc2cccc3c2C(=O)c2c-3n[nH]c2-c2ccc(OCC(=O)N3CCCC3)cc2)CC1 [Compound A44] |
| < 100 | – | – | O=C(Nc1cccc2c1C(=O)c1c(-c3ccc(CN4CC[C@@H](O)C4)cc3)n[nH]c1-2)NN1CCOCC1 [Compound B8] |
| < 10 | < 10 | < 100 | CC(C)N1CCN(S(=O)(=O)c2ccc(-c3[nH]nc4c3C(=O)c3c(NC(=O)NN5CCOCC5)cccc3-4)cc2)CC1 [Compound A57] |
| < 10 | < 100 | < 100 | CN1CCN(NC(=O)Nc2cccc3c2C(=O)c2c-3n[nH]c2-c2ccc(OCCn3cccn3)cc2)CC1 [Compound A17] |
| < 100 | < 100 | < 100 | Cc1cc(-c2[nH]nc3c2C(=O)c2c(NC(=O)NN4CCN(C)CC4)cccc2-3)ccc1OCCN1CCN(C(C)C)CC1 [Compound A18] |
| < 100 | < 100 | – | O=C(Nc1cccc2c1C(=O)c1c(-c3ccc(OCc4nnn[nH]4)cc3)n[nH]c1-2)NN1CCOCC1 [Compound A74] |
| < 100 | < 100 | – | CN1CCN(Cc2ccc(-c3n[nH]c4c3C(=O)c3c(NC(=O)NN5CCOCC5)cccc3-4)cc2)CC1 [Compound A49] |
| < 100 | – | – | O=C(Nc1cccc2c1C(=O)c1c(-c3ccc(CNCc4cccnc4)cc3)n[nH]c1-2)NN1CCOCC1 [Compound B12] |
| – | < 100 | – | O=C(Nc1cccc2c1C(=O)c1c(-c3ccc(CNCCOCCO)cc3)n[nH]c1-2)NN1CCOCC1 [Compound B4] |
| – | < 100 | – | O=C(Nc1cccc2c1C(=O)c1c(-c3ccc(CN4CCN(c5cccc(C(F)(F)F)c5)CC4)cc3)n[nH]c1-2)NN1CCOCC1 [Compound B7] |
| – | < 100 | – | O=C(Nc1cccc2c1C(=O)c1c(-c3ccc(CN4CCC[C@H]4CO)cc3)n[nH]c1-2)NN1CCOCC1 [Compound B6] |
| < 100 | – | – | O=C(Nc1cccc2c1C(=O)c1c(-c3ccc(CNCC(O)CO)cc3)n[nH]c1-2)NN1CCOCC1 (stereo not shown) [Compound B11] |

| Structure (SMILES) | IC50 [1] [nM] | IC50 [2] [nM] | IC50 [3] [nM] |
| --- | --- | --- | --- |
| CC(C)c1nn(-c2c(Cl)cc(Cl)cc2Cl)c2nc(Cc3ccc(NS(=O)(=O)CCCN4CCN(C(C)C)CC4)cc3)[nH]c(=O)c12 [Compound A39] | < 1000 | < 100 | < 1000 |
| COc1ccc(Cc2nc3c(c(C(C)C)nn3-c3c(Cl)cccc3Cl)c(=O)[nH]2)cc1 [Compound A67] | < 100 | < 10 | – |
